# PMC8333425, “Discovery of a dual Ras and ARF6 inhibitor from a GPCR endocytosis screen” (Nature Communications, 2021)
# Assays:
# B2R = test: Confocal microscopy of YFP-tagged B2R internalization; format: cell-based, human; settings: 50 μM; BK
# Description: One day before transfection, cells were seeded in 35-mm glass-bottom dishes (MatTek Corporation) at a density of 1 × 10^5 cells per dish. For the recordings of receptor internalization, HEK293 SL cells were transfected with 2 μg of AT1R-YFP. For the recordings of β-arrestin-2 recruitment to the receptor, HEK293SL cells were transfected with 50 ng of β-arrestin2-YFP and 250 ng of Flag-AT1R or HA-B2R. Forty-eight hours post-transfection, cells were serum starved, preincubated with DMSO (0.1% final concentration) or Rasarfin (50 μM) for 30 min at 37 °C. AT1R-expressing cells were stimulated with angiotensinII (AngII; 100 nM) and B2R-expressing cells were stimulated with bradykinin (BK; 1 μM) for 30 min (receptor-YFP) or 15 min (β-arrestin2-YFP). Cells were imaged with Zeiss LSM-510 and/or LSM-710 laser scanning confocal microscope. To detect YFP, […] and BP 505–550 nm emission filter. Images (2048 × 2048) were collected using a 63x oil immersion lens.
# K-Ras-Y32A = target: T1, K-Ras-Y32A (Homo sapiens, UniProt P01116, Y32A); test: In vitro mant-GTP exchange assay, purified K-Ras-Y32A with SOS1; format: biochemical; settings: 50 μM
# T1 construct: GST (N); FLAG (N); host or cells: E. coli BL21
# T1 sequence (P01116 1-188 isoform P01116-2 Y32A): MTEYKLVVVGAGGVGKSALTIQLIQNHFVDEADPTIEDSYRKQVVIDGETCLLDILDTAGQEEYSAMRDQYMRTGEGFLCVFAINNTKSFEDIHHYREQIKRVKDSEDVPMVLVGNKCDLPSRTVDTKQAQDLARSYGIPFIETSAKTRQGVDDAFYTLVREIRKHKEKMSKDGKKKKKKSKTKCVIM
# Description: Ras activity was assessed in a 384-well black bottom plate using the mant-GTP exchange factor assay that measures the uptake of the fluorescent nucleotide analog N-methylanthraniloyl-GTP (mant-GTP) into GTPases. For Ras activation, 2X exchange buffer, 1.66 μg of purified pGEX-6P-1-H-Ras or pGEX-6P-1-K-Ras-WT or pGEX-6P-1-K-Ras-Y32A were added per well in presence of DMSO, different concentrations of Rasarfin (as indicated) or 50 µM of compounds 21.4, 21.7, or 21.8. Using the Infinite 200 Pro plate reader (Tecan) with filters set at 360 nm and 440 nm for detecting the excitation and emissions, respectively, and temperature set at 20 °C, 5 readings were recorded every 5 s before the addition of either H2O, 40 mM EDTA or 0.66 μg purified SOS1. The fluorescence of mant-GTP uptake was measured every 30 sec for 30 min and quantified as the delta relative fluorescence units (RFU), which was calculated as the RFU post-addition minus the 5 averaged RFU pre-addition, per condition.
# β2AR = test: Endosomal BRET assay of isoproterenol-mediated β2AR internalization; format: cell-based, human
# Source text: We performed a HT campaign in HEK293 cells using the bystander endosomal BRET sensor, which consists of a Renilla luciferase (RlucII)-tagged AT1R and an acceptor renilla GFP (rGFP) anchored to endosomes through an Endofin-FYVE (Endo-rGFP) domain[12]. AngII-mediated trafficking of AT1R to endosomes was screened against commercial libraries of ~115,000 small molecules (Fig. 1a and Supplementary Data 1). Because our assay is based on luminescence and fluorescence, we excluded 6610 compounds that quenched more than 50% of the luciferase or GFP signals. After excluding 5 AT1R antagonists, we conserved hit compounds blocking by more than 40%, as well as those potentiating by more than 100% receptor internalization. From this collection of 943 compounds, a second validation on AT1R internalization was performed using the same BRET assay, as well as on the agonist-mediated B2R internalization, this time using B2R-RlucII and Endo-rGFP. Only compounds that were revalidated on AT1R and affected B2R endocytosis were kept, which included forty hits (20 potentiators and 20 inhibitors) (Fig. 1b and Supplementary Data 2). We focused on inhibitors that were commercially available at the beginning of the project and tested their cell toxicity by microscopy, looking at cells expressing B2R tagged with YFP, which highlights cell contours and potential morphological changes, such as rounding up of cells following treatment with 50 μM of the compounds that may have indicated cell death. None of the inhibitors tested caused abnormal cell morphological changes when cells were treated with compounds as compared to DMSO-treated cells. Inhibitors were also assessed in terms of structure novelty, derivatization potential, and commercial availability of analogs (within 95–98% similarity from Tanimoto metric, Sci-Finder, https://scifinder-n.cas.org), for structure-activity relationship studies (SAR). They were scored 1–5, from best to worst. We excluded compounds with potential nucleophilic reactivity (e.g., Michael addition: compounds 7, 26, and 27), those reported to have biological activities (compounds 8, 20, 25, 30, and 35) and/or showing autofluorescence (compound 26). Compound 19 ranked high, but only had one other molecule with a similar structure available. Although other molecules could be interesting in their own rights as endocytosis inhibitors (e.g., compounds 1, 9, 11, 12, 13, 24, 31, and 37), we focused on compound 21 (Fig. 1c) because not only did it rank high in our analysis, but it was also the only compound with substantially more similar analogs commercially available at the time of these investigations. In the screen and the follow-up validation assay, 21 inhibited more than 50% AT1R internalization and more than 65% B2R internalization (Supplementary Data 2). […] Because β-arrestins are critically involved in GPCR endocytosis and trafficking in cells, we assessed 21’s effects on β-arrestins’ recruitment to AT1R and B2R at the PM using a BRET assay, as well as their trafficking into endosomes by microscopy.
# HEK293SL cells were seeded at a density of 7.5 × 10^5 cells per 100-mm dish and 24 h later, transiently transfected as such. For receptor internalization experiments, cells were transfected with 0.12 μg AT1R-RlucII, B2R-RlucII, or β2AR-RlucII and 0.48 μg of either rGFP-CAAX (to assess removal from the PM) or rGFP-FYVE (to assess accumulation in the endosomes). For β-arrestin recruitment assays, cells were transfected with 0.48 μg of receptor-YFP along with 0.12 μg of β-arrestin-RlucII. For β-arrestin/AP-2 binding experiments, cells were transfected with 1 μg Flag-AT1R, 1 μg β2-Adaptin-YFP, and 0.12 μg β-arrestin2-RlucII. For G protein activation, cells were transfected with 3 μg of sp-Flag-AT1R along with either 4.5 μg of the Gαq-polycistronic BRET sensor or 0.24 μg of the Gαi3-RlucII and 0.6 μg of GFP10-Gγ2 and Gβ1 sensors or 0.12 μg PKN-RBD-RlucII and 0.48 μg of rGFP-CAAX. […]
structure (smiles),measurement,setting,value
CC(C)C(=O)N1CCN(c2ccc(NC(=O)c3cc4ccccc4o3)cc2Cl)CC1 [Compound 21],B2R localization by microscopy,B2R,remained trapped at the PM
same,SOS-mediated mant-GTP binding onto purified K-Ras-Y32A,K-Ras-Y32A,but not on K-Ras-Y32A
same,IC50,"β2AR; Homo sapiens, read-out: IC50 for inhibition of isoproterenol-mediated β2AR internalization into endosomes",15 µM
same,"β2AR internalization into endosomes, ligand-promoted BRET (Mean)",β2AR; Log [Comp21] (M) -4.3,36.2133 percent compared to DMSO
same,"β2AR internalization into endosomes, ligand-promoted BRET (Mean)",β2AR; Log [Comp21] (M) -4.6,48.1993 percent compared to DMSO
same,"β2AR internalization into endosomes, ligand-promoted BRET (Mean)",β2AR; Log [Comp21] (M) -5,64.3705 percent compared to DMSO
same,"β2AR internalization into endosomes, ligand-promoted BRET (Mean)",β2AR; Log [Comp21] (M) -5.3,89.3672 percent compared to DMSO
same,"β2AR internalization into endosomes, ligand-promoted BRET (Mean)",β2AR; Log [Comp 21] (M) -6,95.9498 percent compared to DMSO
same,"β2AR internalization into endosomes, ligand-promoted BRET (Mean)",β2AR; Log [Comp21] (M) -6.3,95.3626 percent compared to DMSO
same,"β2AR internalization into endosomes, ligand-promoted BRET (Mean)",β2AR; Log [Comp 21] (M) -7,95.4832 percent compared to DMSO
